Laboratory results from a compilation of properties of binary mixtures (doi:10.1016/j.molliq.2020.114573).

Assay: xn = mol fraction of the nth substance listed
Settings: 101.3 kPa

CCCC[n+]1ccn(C)c1.O=S(=O)([N-]S(=O)(=O)C(F)(F)F)C(F)(F)F + CC1COC(=O)O1
x1 = 1
Settings	viscosity [mPa·s]
293.15 K	63.1
298.15 K	50.5
303.15 K	41.13
313.15 K	28.4
318.15 K	24.03
323.15 K	20.54
333.15 K	15.91
338.15 K	14.02
343.15 K	12.37
348.15 K	10.91

CC[n+]1ccn(C)c1.O=S(=O)([N-]S(=O)(=O)C(F)(F)F)C(F)(F)F + CC1COC(=O)O1
Settings	viscosity [mPa·s]
288.15 K, x1 = 0.1	4.724
288.15 K, x1 = 0.2127	7.25
288.15 K, x1 = 0.3007	9.74
288.15 K, x1 = 0.4227	14.35
288.15 K, x1 = 0.5146	18.39
288.15 K, x1 = 0.6015	23.02
288.15 K, x1 = 0.658	25.85
288.15 K, x1 = 0.7004	28.44
288.15 K, x1 = 0.7601	31.76
288.15 K, x1 = 0.8098	35.48
288.15 K, x1 = 0.8657	38.62
288.15 K, x1 = 0.8868	40.67
288.15 K, x1 = 0.9533	44.93
288.15 K, x1 = 1	47.8
293.15 K, x1 = 0.1	4.184
293.15 K, x1 = 0.2127	6.34
293.15 K, x1 = 0.4227	11.98
293.15 K, x1 = 0.5146	15.03
293.15 K, x1 = 0.6015	19.33
293.15 K, x1 = 0.658	21.63
293.15 K, x1 = 0.7004	23.75
293.15 K, x1 = 0.7601	26.4
293.15 K, x1 = 0.7977	28.37
293.15 K, x1 = 0.8098	29.37
293.15 K, x1 = 0.8657	31.88
293.15 K, x1 = 0.8868	33.56
293.15 K, x1 = 0.9533	36.88
298.15 K, x1 = 0.1	3.737
298.15 K, x1 = 0.3007	7.34
298.15 K, x1 = 0.4227	10.32
298.15 K, x1 = 0.5146	12.87
298.15 K, x1 = 0.6015	16.3
298.15 K, x1 = 0.658	18.51
298.15 K, x1 = 0.7601	22.25
298.15 K, x1 = 0.7977	23.88
298.15 K, x1 = 0.8098	24.66
298.15 K, x1 = 0.8657	26.69
298.15 K, x1 = 0.8868	28.06
298.15 K, x1 = 0.9533	30.76
298.15 K, x1 = 1	32.42
303.15 K, x1 = 0.2127	4.96
303.15 K, x1 = 0.3007	6.46
303.15 K, x1 = 0.5146	11.13
303.15 K, x1 = 0.6015	14.61
303.15 K, x1 = 0.658	16.21
303.15 K, x1 = 0.7004	17.58
303.15 K, x1 = 0.7977	20.34
303.15 K, x1 = 0.8098	20.96
303.15 K, x1 = 0.8657	22.62
303.15 K, x1 = 0.8868	23.76
303.15 K, x1 = 0.9533	25.94
303.15 K, x1 = 1	27.26
308.15 K, x1 = 0.1	3.037
308.15 K, x1 = 0.2127	4.435
308.15 K, x1 = 0.3007	5.73
308.15 K, x1 = 0.5146	9.72
308.15 K, x1 = 0.658	14.09
308.15 K, x1 = 0.7004	15.35
308.15 K, x1 = 0.7977	17.84
308.15 K, x1 = 0.8098	18.26
308.15 K, x1 = 0.8657	19.38
308.15 K, x1 = 0.8868	20.35
308.15 K, x1 = 0.9533	22.14
313.15 K, x1 = 0.1	2.762
313.15 K, x1 = 0.2127	3.99
313.15 K, x1 = 0.3007	5.13
313.15 K, x1 = 0.4227	6.99
313.15 K, x1 = 0.5146	8.55
313.15 K, x1 = 0.6015	10.89
313.15 K, x1 = 0.658	12.21
313.15 K, x1 = 0.7004	13.32
313.15 K, x1 = 0.7977	15.7
313.15 K, x1 = 0.8657	17.2
313.15 K, x1 = 0.8868	17.89
313.15 K, x1 = 0.9533	19.08
318.15 K, x1 = 0.1	2.524
318.15 K, x1 = 0.2127	3.613
318.15 K, x1 = 0.4227	6.24
318.15 K, x1 = 0.5146	7.6
318.15 K, x1 = 0.658	10.64
318.15 K, x1 = 0.7601	12.82
318.15 K, x1 = 0.7977	13.74
318.15 K, x1 = 0.8098	14.09
318.15 K, x1 = 0.8657	15.18
318.15 K, x1 = 0.8868	15.85
318.15 K, x1 = 1	17.37
323.15 K, x1 = 0.1	2.318
323.15 K, x1 = 0.2127	3.292
323.15 K, x1 = 0.3007	4.173
323.15 K, x1 = 0.4227	5.6
323.15 K, x1 = 0.5146	6.79
323.15 K, x1 = 0.658	9.31
323.15 K, x1 = 0.7004	10.12
323.15 K, x1 = 0.7601	11.2
323.15 K, x1 = 0.7977	11.96
323.15 K, x1 = 0.8098	12.34
323.15 K, x1 = 0.8657	13.32
323.15 K, x1 = 0.8868	13.92
323.15 K, x1 = 0.9533	15.09
323.15 K, x1 = 1	15.34
328.15 K, x1 = 0.1	2.138
328.15 K, x1 = 0.3007	3.8
328.15 K, x1 = 0.6015	7.37
328.15 K, x1 = 0.658	8.23
328.15 K, x1 = 0.7004	8.93
328.15 K, x1 = 0.8098	10.81
328.15 K, x1 = 0.8657	11.71
328.15 K, x1 = 0.8868	12.21
328.15 K, x1 = 0.9533	13.31
328.15 K, x1 = 1	13.63
333.15 K, x1 = 0.2127	2.771
333.15 K, x1 = 0.4227	4.607
333.15 K, x1 = 0.5146	5.53
333.15 K, x1 = 0.6015	6.52
333.15 K, x1 = 0.7601	8.7
333.15 K, x1 = 0.7977	9.28
333.15 K, x1 = 0.8098	9.55
333.15 K, x1 = 0.8657	10.33
333.15 K, x1 = 0.8868	10.75
333.15 K, x1 = 0.9533	11.76
333.15 K, x1 = 1	12.17
338.15 K, x1 = 0.2127	2.558
338.15 K, x1 = 0.3007	3.195
338.15 K, x1 = 0.4227	4.205
338.15 K, x1 = 0.5146	5.03
338.15 K, x1 = 0.6015	5.88
338.15 K, x1 = 0.658	6.52
338.15 K, x1 = 0.7004	7.07
338.15 K, x1 = 0.7601	7.75
338.15 K, x1 = 0.7977	8.26
338.15 K, x1 = 0.8098	8.49
338.15 K, x1 = 0.8657	9.18
338.15 K, x1 = 0.8868	9.55
338.15 K, x1 = 0.9533	10.42
338.15 K, x1 = 1	10.88
343.15 K, x1 = 0.1	1.712
343.15 K, x1 = 0.2127	2.37
343.15 K, x1 = 0.3007	2.947
343.15 K, x1 = 0.4227	3.852
343.15 K, x1 = 0.6015	5.33
343.15 K, x1 = 0.658	5.88
343.15 K, x1 = 0.7004	6.33
343.15 K, x1 = 0.8657	8.2
343.15 K, x1 = 0.8868	8.52
343.15 K, x1 = 0.9533	9.3
343.15 K, x1 = 1	9.76
348.15 K, x1 = 0.3007	2.729
348.15 K, x1 = 0.4227	3.549
348.15 K, x1 = 0.5146	4.215
348.15 K, x1 = 0.6015	4.9
348.15 K, x1 = 0.7004	5.77
348.15 K, x1 = 0.7601	6.34
348.15 K, x1 = 0.7977	6.71
348.15 K, x1 = 0.8098	6.83
348.15 K, x1 = 0.8657	7.35
348.15 K, x1 = 0.8868	7.64
348.15 K, x1 = 0.9533	8.33
348.15 K, x1 = 1	8.78

CC[n+]1ccn(C)c1C.O=S(=O)([N-]S(=O)(=O)C(F)(F)F)C(F)(F)F + CC1COC(=O)O1
viscosity [mPa·s]
Settings	x1 = 0.1025	x1 = 0.203	x1 = 0.3078	x1 = 0.3994	x1 = 0.5149	x1 = 0.5825	x1 = 0.7004	x1 = 0.8032	x1 = 0.8903	x1 = 1
293.15 K	4.428	6.93	10.56	14.82	23.06	28.58	40.63	54.1	67.4	88.1
298.15 K	3.939	6.07	9.11	12.62	19.36	23.79	33.34	43.9	54.2	69.8
303.15 K	3.529	–	7.94	10.86	16.94	–	27.76	36.2	44.35	56.4
308.15 K	3.181	4.77	6.98	9.45	14.61	17.55	23.4	30.24	36.77	46.1
313.15 K	2.886	4.278	6.18	8.29	12.57	15.29	–	25.57	30.87	38.26
318.15 K	2.631	3.864	5.52	–	–	13.22	17.6	–	26.2	32.15
323.15 K	–	3.506	4.96	6.54	–	11.45	–	18.92	22.48	27.31
328.15 K	2.218	–	4.485	5.86	8.27	9.99	13.53	–	19.46	23.43
333.15 K	2.05	2.932	4.078	–	7.31	8.77	11.81	14.88	17.38	20.28
338.15 K	1.901	2.699	–	4.8	6.49	7.77	10.37	13.07	15.46	17.69
343.15 K	1.769	2.494	3.419	–	5.82	–	9.15	11.54	–	15.62
348.15 K	–	2.312	3.149	4.011	5.23	6.15	–	10.17	12.07	13.94
